According to patent US20120220580A1, “PREPARATION OF CAROTENOID DERIVATIVES AND THEIR APPLICATIONS” (BEIJING GINGKO GROUP BIOLOGICAL TECHNOLOGY CO., LTD., priority 2009, published 2012):

Columns and labels:
nutritional obesity rats [1] = assay: Weight of abdomen fat of nutritional obesity rats (Example 20); type: in vivo, rat; details: after 30 d administration, x ± s
Method: (§1) Fucoxanthin group and test animal groups were administrated with same doses of the drugs. The basal feed control group continued to be fed with basal feed, other groups with high-fat feed. The basal feed- and model control groups were intragastric administrated with distilled water, the other, drug-administrated groups with respective doses of drug, the administration were carried out uninterruptedly for 30 d. Each group of the animals were bred in different hutches, the room temperature was controlled within (22±2)° C., using natural illumination, the animals took food and drank freely. The body weights of the animals were measured one time each week, feed-intakes of the rats were also observed and recorded. After 30 days the rats were weighed. Statistical analysis: Variance analysis of the data collected in this experiment was implemented by SAS software package, Dunnett's t-test was used for inter-group comparative analysis, p<0.05 was used as the criterion of statistical significance. Experimental procedures were the same as in Example 17. […] Statistical analysis was the same as in Example 16.

nutritional obesity rats [2] = assay: Weight of fat pads around testicles of nutritional obesity rats (Example 18); type: in vivo, rat; details: after 30 d administration, x ± s
Method: as §1

nutritional obesity rats [3] = assay: Body weight of nutritional obesity rats on high-fat feed, intragastric drug for 30 d (Example 17); type: in vivo, rat; details: Table 1, high-fat feed, x ± s; note: test concentration or dose not given here
Method: Fucoxanthin group and test animal groups were administrated with same doses of the drugs. The basal feed control group continued to be fed with basal feed, other groups with high-fat feed. The basal feed- and model control groups were intragastric administrated with distilled water, the other, drug-administrated groups with respective doses of drug, the administration were carried out uninterruptedly for 30 d. Each group of the animals were bred in different hutches, the room temperature was controlled within (22±2)° C., using natural illumination, the animals took food and drank freely. The body weights of the animals were measured one time each week, feed-intakes of the rats were also observed and recorded. After 30 days the rats were weighed. Statistical analysis: Variance analysis of the data collected in this experiment was implemented by SAS software package, Dunnett's t-test was used for inter-group comparative analysis, p<0.05 was used as the criterion of statistical significance.

[4] = tested on: nutritional obesity model rats; assay: Weight of fat pads around kidneys of nutritional obesity model rats (Example 19); type: in vivo, rat; details: after 30 d administration, x ± s
Method: as §1

[5] = compared with fucoxanthin; cited from earlier work

C\C(C=C=C1C(C)(C)CC(O)C[C@@]1(C)O)=C/C=C/C(C)=C/C=C/C=C(C)/C=C/C=C(\C)C(=O)CC12OC1(C)CC(O)CC2(C)C (stereo partly drawn) [fucoxanthol, reference compound]
Body weight(g) (After-experiment) (nutritional obesity rats [1]; Table 4): 527.00 ± 18.89 g
Weight abdomen fat/bw × 100 (nutritional obesity rats [1]): 1.60 ± 0.11ΔΔ
Weight. abdomenfat (g) (nutritional obesity rats [1]): 7.91 ± 0.11ΔΔ g
Body weight(g) (After-experiment) (nutritional obesity rats [2]; Table 2): 527.00 ± 18.89 g
Weight fat pads around testicles(g) (nutritional obesity rats [2]): 7.00 ± 0.67ΔΔ g
Weight fat pads around testicles/bw × 100 (nutritional obesity rats [2]): 1.25 ± 0.13ΔΔ
Body weight(g) (After-experiment) (nutritional obesity rats [3]; after 30 d intragastric administration): 527.00 ± 18.89ΔΔ g
Body weight(g) increased (nutritional obesity rats [3]; increase over 30 d of administration): 39.39 ± 18.11ΔΔ g
Body weight(g) (After-experiment) ([4]; Table 3): 527.00 ± 18.89 g
Weight fat pads around kidneys(g) [4]: 7.0 ± 0.58ΔΔ g
Weight fat pads around kidneys/bw × 100 [4]: 1.20 ± 0.10ΔΔ
weight-reducing activity [5]: much stronger than fucoxanthin
